Assay results as given in US12324798B1, “Leonurine nanocomposite hydrogel and preparation methods and applications thereof” (WEST CHINA HOSPITAL OF SICHUAN UNIVERSITY, priority 2023, dated 2025).

Test system: LPS-stimulated Raw264.7 cells
Assay: Western blotting of pro-inflammatory cytokines
Assay type: cell-based
Conditions: WB; co-culture with LPS-stimulated Raw264.7 cells for 2 days; vs LPS
Protocol: In some embodiments, to assess whether M1 macrophage-targeted FA-PDA nanocarriers enhance the efficiency of anti-inflammatory therapy with loaded Leon, FA-PDA@Leon was co-cultured with LPS-stimulated Raw264.7 cells for 2 days, after which western blotting (WB) analysis was performed. A first group (Group 1) in FIG. 4G to FIG. 4J represents the control group (NC), a second group (Group 2) represents the LPS treatment, a third group (Group 3) represents the LPS and Leon co-treatment, a fourth group (Group 4) represents the LPS and PDA co-treatment, the fifth group (Group 5) represents the LPS and PDA@Leon co-treatment, and a sixth group (Group 6) indicates the LPS and FA-PDA@Leon co-treatment.

## COc1cc(C(=O)OCCCCNC(=N)N)cc(OC)c1O [Leon, leonurine]
  protein expression of pro-inflammatory cytokines (iNOS, IL-13, IL-6, TNF-α): down-regulated
